# Test results taken from patent US20150285812A1, “Fluorescence-Labelled Fatty Acids and Uses Thereof” (SANOFI, priority 2012, published 2015).
# “Also recorded” adds a separate entry of the source.
# What was measured:
# [1] = log D7.4 determination by RP-HPLC, similar to the water/octanol partition coefficient method; format: physicochemical; details: pH 7.4, RP-HPLC C18, range −1 to +6
# Method: log D7.4 values were determined by a method similar to the partition coefficient method in a water/octanol mixture and were carried out on an RP-HPLC from Waters Alliance (2795) having a C18 column (2×20 mm) with a gradient of morpholinesulfonic acid buffer (pH 7.4) and acetonitrile. The range was between −1 ([…]) to +6 (lipophilic).
# [2] = biological target: T1, amino acid Trp214 of HSA (Homo sapiens, UniProt P02768); experiment: FRET interactions of NBD C12 (17) with Trp214 of HSA; format: binding; details: for tryptophan emission intensity of HSA after addition of the dye: emission 330 nm, without dye 170/171 FI
# T1 construct: purchased Sigma Aldrich A1887
# T1 sequence (P02768 25-609): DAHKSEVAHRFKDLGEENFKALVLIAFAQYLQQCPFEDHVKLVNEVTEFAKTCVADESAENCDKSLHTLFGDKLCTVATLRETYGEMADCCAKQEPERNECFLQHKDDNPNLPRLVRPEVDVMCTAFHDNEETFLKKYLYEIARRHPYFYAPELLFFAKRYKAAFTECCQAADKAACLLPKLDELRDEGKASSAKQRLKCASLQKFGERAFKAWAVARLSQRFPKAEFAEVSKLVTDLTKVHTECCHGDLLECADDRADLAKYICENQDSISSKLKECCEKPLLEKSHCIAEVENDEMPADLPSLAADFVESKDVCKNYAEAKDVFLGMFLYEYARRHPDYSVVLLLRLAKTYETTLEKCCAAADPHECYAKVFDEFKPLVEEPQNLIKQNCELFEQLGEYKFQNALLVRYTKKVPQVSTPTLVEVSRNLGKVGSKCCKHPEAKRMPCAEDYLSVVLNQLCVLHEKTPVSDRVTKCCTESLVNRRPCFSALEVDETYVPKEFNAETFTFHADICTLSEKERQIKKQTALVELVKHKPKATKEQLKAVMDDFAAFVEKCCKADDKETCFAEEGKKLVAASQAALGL
# Method: For determining FRET (Förster resonance energy transfer) interactions of NBD C12 (17) with amino acid Trp214 of HSA, concentrations of a dye-HSA mixture according to Table 8 were applied in an amount of 250 μl for each case.
# 100 μl of mixture 7 were pipetted into a 96 well microplate and a wavelength scan for the absorption in the range from 250 nm to 700 nm was carried out. In each case 15 μl of the residual solutions 1 to 6 were pipetted four times into a black 384 well microplate and emission spectra of the solution in the range from 270 nm to 700 nm were recorded at 290 nm excitation wavelength of the Trp.
# For dye NBD C12 (17) the FRET effect between the tryptophan of the HSA and the dye itself was investigated more precisely. The emission spectrum of the amino acid tryptophan overlapped with the absorption spectrum of the NBD dye, because the energy of the donor to be transferred must lie in the region of the possible energy absorption of the acceptor. This is the case when the two spectra overlap. For measurement, both solutions were employed in identical concentrations (25 μM) and the units of the fluorescence intensities (FIrel) and the absorption strength (ODrel) were standardized. An excitation wavelength of 290 nm was utilized for the emission spectrum of tryptophan.
# In the next step, different concentrations of NBD C12 (17) were added to the HSA solution until a ratio of NBD to HSA of 1:1 was reached, and the emission spectra were measured.
# The efficiency of the energy transfer occurring was calculated using the equation 3.4.
# The distance R0, at which a 50% energy exchange takes place, was calculated according to the following equation. Furthermore, by transformation of said equation the real distance r of donor and acceptor was determined.
# The fluorescence quantum yield for tryptophan is 0.15.
# [3] = biological target: T2, HSA (Homo sapiens, UniProt P02768); experiment: Fluorescence of NBD and dansyl dyes with increasing HSA (FRET effect, emission maxima); format: binding
# T2 construct: purchased Sigma Aldrich A1887
# T2 sequence (P02768 25-609): as above
# Method: Absorption and fluorescence of fluorescence-labelled derivatives and HSA were carried out in a Varioskan™ microplate reader (Thermo Electron Corporation). 96 well (Costar, half area, flat bottom) microplates were used for absorption measurements and 384 well (Greiner Bio One, small volume, black) microplates from Greiner Bio One were used for fluorescence measurements. All measurements were carried out at pH 7.4 and room temperature.
# 5.00 ml of a 400 μM solution were prepared from the HSA stock solution. From this solution a geometric dilution series with 7 dilution steps, a dilution factor of 0.5 and a final volume of each concentration of 2.5 ml were prepared.
# Defined concentrations of the fluorescence-labelled compounds were selected from the preceding experiment without HSA above and double-concentrated solutions thereof were prepared to take into account the later 1:1 dilution. For each fluorescence-labelled compound (12-17; 19-25) 1.00 ml of these double-concentrations was prepared. 50 μl of the dye solutions were introduced into a 96 well microplate and 50 μl each of the HSA dilution series were added. By mixing the solutions the concentrations of dye derivatives and the HSA solution were halved. The measurements of the absorption and fluorescence were carried out in analogy to the above experimental procedure without HSA.
# In analogy to the absorption measurement the effect of HSA on the fluorescence of the dyes (12-17; 19-25) was determined. The same concentrations of NBD and dansyl dyes and the same concentration range for HSA as already described above were used.
# [4] = biological target: T2, HSA; experiment: Displacement of NBD derivatives on HSA by natural fatty acids C6 to C16 (fluorescence); format: binding; details: ranking among NBD C8, C10 and C12 from the competition experiments
# Method: Dilution series for competition experiments with the fatty acids C6 to C16 were diluted with phosphate-buffered saline solution (DPBS buffer). Geometric dilution series of each fatty acid were prepared in 384 well microplates with a starting concentration of 2500 μM and a dilution factor of 0.33 and also 9 dilution steps. The final volume of each concentration was 80 μl. The plated-out fatty acids were stored in the deep freeze (−25° C.) until use.
# For displacement experiments 2.50 ml of a 25 μM HSA solution were used per dye derivative. Due to the subsequent dilution steps the HSA concentration was doubled twice such that 2.50 ml of […] solution were prepared.
# The dye concentrations were also doubled twice by the following dilution steps. 2.50 ml of each dye solution were needed. 2.10 ml of the respective dye solution were then mixed with 2.10 ml of the 100 μM HSA solution. The respective concentrations of the solutions halve here once. 50 μl of the mixture per well were introduced into a 96 well microplate.
# The fatty acid microplates were brought to room temperature and 50 μl each of the dilution series were pipetted into the HSA-dye mixture. The concentrations of all solution constituents were thereby halved once again. In analogy to the experiments measuring the fluorescence of the fluorescence-labelled derivatives without HSA above, the solutions were pipetted from the 96 well microplate into a 384 well microplate. Absorption was not measured. The fluorescence measurement without a wavelength scan was carried out in analogy to the above-referenced experiment.
# A concentration of 25 μM and a binding ratio of the NBD derivatives to HSA of 1:1 were employed for the displacement studies. For each dye derivative an NBD-HSA mixture with a concentration of 25 μM was prepared.
# [5] = biological target: T2, HSA; experiment: Competition of NBD C12 (17) on HSA with ibuprofen and warfarin; format: binding; details: from competition with warfarin and ibuprofen
# Method: In analogy to the experiments measuring the fluorescence of the fluorescence-labelled derivatives without HSA above, the solutions were pipetted from the 96 well microplate into a 384 well microplate. […] The fluorescence measurement without a wavelength scan was carried out in analogy to the above-referenced experiment.
# [6] = HSA 25 μM, NBD to HSA up to 1:1, excitation 290 nm
smiles,measurement,setting,value
"O=C(O)CCCCCCCCCCCNc1ccc([N+](=O)[O-])c2nonc12 [NBD C12 (17), 12-(7-Nitrobenzo[1,2,5]oxadiazol-4-ylamino)dodecanoic acid]",chromatographic logD,[1],2.84
same,log D7.4,[1],2.84
same,fluorescence of the dye on excitation of tryptophan,[2]; [6],15 FI
same,tryptophan emission intensity of HSA after addition of the dye,[2]; [6],82 FI
same,tryptophan emission intensity of HSA after addition of the dye,"[2]; HSA 25 μM, NBD to HSA up to 1:1, excitation 290 nm, listed as NBD dye C12 (17)",80 FI
same,efficiency of the energy transfer,[2]; calculated from I 82 FI and I0 171 FI,approximately 52%
same,"Δλ, shift of emission maximum λem without HSA vs with HSA","[3]; NBD compound 25 μM, λex = 480 nm",16 nm
same,change in fluorescence intensity with increasing HSA concentration,"[3]; NBD derivatives 25 μM, HSA 1.56 to 200 μM, 480-550 nm, pH 7.4",increase in fluorescence intensity
same,relative binding affinity of the NBD dye for HSA,[4],greatest binding affinity; also recorded: bounds best
same,binding site on HSA,[5],neither bound the Sudlow's site I nor the Sudlow's site II
